Values of other authors in US6740655B2, “Pyrimidine carboxamides useful as inhibitors of PDE4 isozymes” (Pfizer Inc, priority 2000, dated 2004).
“Also recorded” adds a separate entry of the source. Like-named read-outs stand apart in the source and are kept apart here.

Experiments:
[1] = doses up to 400 mg, 54 subjects
[2] = rat
[3] = tested on: antigen-induced eosinophilia; settings: rat
[4] = tested on: PDE4 from U937 cells
[5] = tested on: high-affinity rolipram binding site (Sr)
[6] = in vivo
[7] = tested on: inflammatory parameters, atopic dermatitis
[8] = tested on: lipopolysaccharide-induced mesenteric blood flow fall
[9] = tested on: lipopolysaccharide-induced bowel erythrocyte extravasation; settings: rats; b385: pretreatment i.p. 3×, pentoxifylline 5 to 50, rolipram 10 to 30, debufylline 0.1 to 3 mg/kg
[10] = tested on: late reactions to inhaled allergen; settings: b18: 9.5 days oral, 15 and 30 mg
[11] = tested on: tumor cells; settings: at micromolar concentrations
[12] = tested on: pulmonary artery rings
[13] = tested on: allergic rhinitis; settings: in vivo
[14] = tested on: psoriatic lesions
[15] = tested on: guinea-pig trachea
[16] = tested on: T-cell mediated hepatic failure; settings: mouse, in vivo

## COc1cc2c3c(c1)C(c1ccccc1)=N[C@@H](NC(=O)c1cc4ccccc4cn1)C(=O)N3CC2 [Cl-1018]
[1]
  adverse events: no adverse events were reported
[2]
  oral bioavailability: 57%
[3]
  inhibition of antigen-induced eosinophilia: active
[3]; oral
  oral potency ED50: 5 mg/kg
[4]; read-out: IC50 PDE4 in U937 cells
  IC50: 1100 nM

## COc1ccc(C2CNC(=O)NC2)cc1OC1CC2CCC1C2 (stereo not drawn) [CP-80,633]
[5]
  affinity at the Sr: high affinity
[6]
  emesis / nausea and vomiting: elicit emesis
[7]; human, in vivo
  adverse effects: no adverse effects
[7]; topical, bilaterally over eight days, twenty patients
  inflammatory parameters: effectively inhibit all of the inflammatory parameters tested

## CCCCn1c(=O)c2c(ncn2CC(C)=O)n(CCCC)c1=O [denbufylline]
[8]
  intestinal hypoperfusion in dogs: attenuated
[9]
  lipopolysaccharide-induced bowel erythrocyte extravasation: attenuated

## COc1ccc([C@H](Cc2ccncc2)c2ccccc2)cc1OC1CCCC1 [CDP840]
[10]
  late reactions / late-phase response: suppression of late reactions; also recorded: significant inhibition of late-phase response

## Clc1nc2c(N3CCCC3)nc(N3CCNCC3)nc2nc1NCc1ccccc1 [Formula (0.0.55)]
[11]
  growth of tumor cells: inhibit the growth of tumor cells

## Cc1[nH]c(=O)c(C#N)cc1-c1ccncc1 [milrinone]
[12]
  relaxant activities of isoproterenol and forskolin: The same effect has been observed

## O=C(Nc1c(Cl)cncc1Cl)C(=O)c1cn(Cc2ccc(F)cc2)c2ccc(O)cc12 [AWD-12,281]
[13]
  activity in rat model of allergic rhinitis: active

## COC(=O)c1ccc2c(=O)n(C3NC(c4ccccc4)c4cc(N)cc5c4N(CC5)C3=O)cnc2c1 (stereo not drawn) [Formula (0.0.53)]
[4]; read-out: IC50 against the PDE4 from U937 cells
  IC50: 3 nM

## O=C(NC1NC(c2ccccc2)c2cccc3c2N(CC3)C1=O)c1ccncc1 (stereo not drawn) [PD-168787]
[3]
  inhibition of antigen-induced eosinophilia: activity

## COc1ccc(CC2CNC(=O)N2)cc1OC1CCCC1 (stereo not drawn) [Ro 20-1724]
[14]; in vivo
  adverse systemic or cutaneous effects: without adverse systemic or cutaneous effects
[14]; versus vehicle
  effect on psoriatic lesions: improve psoriatic lesions

## CC1CC1c1nc(NC2CC2)nc(N2CCOCC2)n1 (stereo not drawn) [Formula (0.0.57)]
[15]
  relaxant activity in guinea-pig trachea model: potent relaxant agents

## COc1ccc(C2CNC(=O)C2)cc1OC1CCCC1 (stereo not drawn) [rolipram]
[8]
  intestinal hypoperfusion in dogs: attenuated
[9]
  lipopolysaccharide-induced bowel erythrocyte extravasation: attenuated
[16]
  concanavalin A-induced IL4 release: suppress

## O=S1(=O)CCN(c2nc(NC3CC3)nc(C3CC3)n2)C1 [Formula (0.0.56)]
[15]
  relaxant activity in guinea-pig trachea model: potent relaxant agents
